The record followed here is patent US5760241A, “Thiol derivatives with metallopeptidase inhibitory activity” (priority 1996, dated 1998).

Experiment [1] has as its target T1, ACE (purified by lung rabbit, EC 3.4.15.1) (Oryctolagus cuniculus, UniProt P12822).
T1 construct: purchased SIGMA; host or cells: rabbit lung
T1 sequence (P12822 34-1310): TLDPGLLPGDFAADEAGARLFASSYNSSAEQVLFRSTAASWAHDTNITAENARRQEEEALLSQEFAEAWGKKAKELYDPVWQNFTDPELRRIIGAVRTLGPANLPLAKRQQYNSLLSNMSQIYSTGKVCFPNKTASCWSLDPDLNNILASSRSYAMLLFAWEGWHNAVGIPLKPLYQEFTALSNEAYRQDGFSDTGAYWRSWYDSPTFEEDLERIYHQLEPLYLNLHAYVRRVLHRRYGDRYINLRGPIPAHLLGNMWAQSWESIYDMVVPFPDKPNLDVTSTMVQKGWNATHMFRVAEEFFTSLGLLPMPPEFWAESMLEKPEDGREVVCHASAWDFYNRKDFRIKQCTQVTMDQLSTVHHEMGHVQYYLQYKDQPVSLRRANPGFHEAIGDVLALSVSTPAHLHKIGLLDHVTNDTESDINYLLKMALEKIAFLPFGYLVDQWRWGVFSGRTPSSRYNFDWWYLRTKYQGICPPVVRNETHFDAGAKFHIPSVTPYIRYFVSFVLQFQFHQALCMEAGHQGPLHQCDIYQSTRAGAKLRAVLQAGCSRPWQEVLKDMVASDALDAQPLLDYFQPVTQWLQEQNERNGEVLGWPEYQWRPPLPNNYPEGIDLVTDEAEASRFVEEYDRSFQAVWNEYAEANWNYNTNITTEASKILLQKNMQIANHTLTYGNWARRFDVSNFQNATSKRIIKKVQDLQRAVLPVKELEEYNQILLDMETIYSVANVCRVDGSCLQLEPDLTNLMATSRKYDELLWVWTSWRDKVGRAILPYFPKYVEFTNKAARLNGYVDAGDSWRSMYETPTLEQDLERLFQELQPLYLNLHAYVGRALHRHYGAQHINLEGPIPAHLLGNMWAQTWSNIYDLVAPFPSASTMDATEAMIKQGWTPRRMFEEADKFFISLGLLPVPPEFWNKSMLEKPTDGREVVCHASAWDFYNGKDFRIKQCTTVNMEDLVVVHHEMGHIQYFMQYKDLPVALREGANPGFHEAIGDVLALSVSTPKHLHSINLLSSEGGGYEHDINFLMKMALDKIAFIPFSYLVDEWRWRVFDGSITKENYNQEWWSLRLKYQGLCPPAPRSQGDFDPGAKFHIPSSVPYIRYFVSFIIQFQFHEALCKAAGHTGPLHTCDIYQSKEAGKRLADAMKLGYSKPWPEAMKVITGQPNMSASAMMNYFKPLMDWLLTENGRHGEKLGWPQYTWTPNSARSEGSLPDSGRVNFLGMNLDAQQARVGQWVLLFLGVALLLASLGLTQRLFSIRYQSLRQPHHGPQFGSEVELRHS
The experiment in a line: In vitro ACE-inhibitory activity (FAPGG substrate, spectrophotometric). Format: biochemical. The following applies: 37° C.; FAPGG 0.8 mM. As for the experimental part:
(§1) b) ACE-inhibitory activity
The ACE-inhibitory activity was evaluated according to the method reported in the literature by B. Holmquist et al., in Analytical Biochemistry 95, 540-548 (1979).
[…] of ACE (250 mU/ml purified by lung rabbit, EC 3.4.15.1 SIGMA) were preincubated with 50 μl of the compound of formula I or of the comparison compound in thermostated cuvettes at 37° C.
The reaction was started by adding furylacryloylphenylalanylglycylglycine 0.8 mM (FAPGG-SIGMA).
Contemporaneously, by using a Beckman DU-50 spectrophotometer provided with a program for calculating delta A/minutes and regression coefficients of the enzyme kinetics curves, the absorbance at 340 nm was recorded in continuo for 5 minutes.
The percentage of the enzyme inhibition in the preparations treated with the compounds of formula I or with the comparative compounds with respect to the untreated preparations was expressed as IC50 (nM) value.

The subject of the next experiment is ACE (SHR lungs). Description: Ex vivo ACE-inhibitory activity in lungs of treated SHR. Details: species or system spontaneously hypertensive rats (SHR). The conditions noted are these: i.v. 0.64 μmoles/kg, 5 minutes. How it is done:
The ex vivo ACE/NEP-inhibitory activity of the compounds of formula I, in particular, was evaluated by considering the enzymatic activity in tissue homogenates (lung and kidney for the ACE- and NEP-inhibitory activity, respectively) from spontaneously hypertensive rats (SHR), treated with the tested compounds by intravenous or oral route.
as §1
The ex vivo ACE-inhibitory activity was evaluated by using a radiometric assay method, as reported in the literature by J. W. Ryan et al. in Biochem. J. (1977), 167, 501-504.
The inhibitory activity of the compounds of formula I was evaluated in lungs of spontaneously hypertensive rats (SHR), 5 minutes after i.v. injection (0.6, 0.64 and 21 μmoles/kg) and 30 minutes, 60 minutes and 4 hours after oral administration (30 μmoles/kg) of the tested compounds.
After the removal of the lungs from SHR, the lung tissue was homogenized and incubated for 2 hours at 37° C. in the presence of [^3 H]Hyp-Gly-Gly, as a substrate.
The reaction was stopped by adding hydrochloric acid.
The released radiolabelled hyppuric acid was extracted with ethyl acetate and counted by liquid scintillation spectrometry, according to conventional methods.
The ACE-inhibitory activity of the tested compounds was expressed as percentage of ACE-inhibition in SHR lungs.
As an example, the percentages of basal enzymatic activity obtained in the ex vivo tests after the administration of compounds 29 and 41, as representative compounds of formula I, and of the comparison compounds R-1, R-2, R-3 and R-4 are reported in the following table 2.

pIC50: −log10 of the molar value.

A word on the pIC50: it is the IC50 on a negative log10 scale, so that one unit is a factor of ten. Low readings indicate a high IC50, high ones a low IC50. With `O=C(N[C@@H](Cc1ccc(-c2ccccc2)cc1)C(=O)O)C(CS)Cc1ccccc1` (some centres unmarked) [compound 41], the pIC50 in experiment [1] was 8.30. Moreover, in the experiment with ACE (SHR lungs), the “ACE-inhibition (lungs), 5 minutes” value amounted to 49%.
